From patent US12344600B2, “c-Myc mRNA translation modulators and uses thereof in the treatment of cancer” (Anima Biotech Inc., priority 2022, dated 2025)

System: c-Myc
Test: c-Myc immunofluorescence assay
Assay type: cell-based, human
Conditions: A549 cells, 24 hours, anti-c-Myc immunofluorescence
How it was run: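 Read-out is imaged c-Myc immunofluorescence, nucleus-segmented, in A549 lung carcinoma cells exposed to compound dose series for 24 h after 48 h growth. Fixation 4% paraformaldehyde, Triton permeabilization, antibody staining at room temperature; EC50 from logistic fit of signal versus concentration.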

SMILES | Myc Efficacy (−LogEC50)
CCCN1CCC(CNC(=O)C2CCN(c3nc(-c4ccc(OC)cc4)no3)CC2)C1 (centres unmarked) [Compound 386, 1-(3-(4-methoxyphenyl)-1,2,4-oxadiazol-5-yl)-N-((1-propylpyrrolidin-3-yl)methyl)piperidine-4-carboxamide] | + (+ >3 and <5)
COc1ccc(-c2noc(N3CCC(C(=O)NCC4CCN(Cc5cccc(C)n5)C4)CC3)n2)cc1 (centres unmarked) [Compound 387, 1-(3-(4-methoxyphenyl)-1,2,4-oxadiazol-5-yl)-N-((1-((6-methylpyridin-2-yl)methyl)pyrrolidin-3-yl)methyl)piperidine-4-carboxamide] | ++ (++ ≥5 and <6)
COc1ccc(-c2noc(N3CCC(C(=O)NCC4CCN(Cc5cnc(C)s5)C4)CC3)n2)cc1 (centres unmarked) [Compound 388, 1-(3-(4-methoxyphenyl)-1,2,4-oxadiazol-5-yl)-N-((1-((2-methylthiazol-5-yl)methyl)pyrrolidin-3-yl)methyl)piperidine-4-carboxamide] | ++ (++ ≥5 and <6)
COc1ccc(-c2noc(N3CCC(C(=O)NCC4CCN(Cc5ccc[nH]5)C4)CC3)n2)cc1 (centres unmarked) [Compound 389, N-((1-((1H-pyrrol-2-yl)methyl)pyrrolidin-3-yl)methyl)-1-(3-(4-methoxyphenyl)-1,2,4-oxadiazol-5-yl)piperidine-4-carboxamide] | ++ (++ ≥5 and <6)
COc1ccc(-c2noc(N3CCC(C(=O)NCC4CCN(Cc5cccc(O)c5)C4)CC3)n2)cc1 (centres unmarked) [Compound 390, N-((1-(3-hydroxybenzyl)pyrrolidin-3-yl)methyl)-1-(3-(4-methoxyphenyl)-1,2,4-oxadiazol-5-yl)piperidine-4-carboxamide] | ++ (++ ≥5 and <6)
COc1ccc(-c2noc(N3CCC(C(=O)NCC4CCN(CC5CCCNCC5)C4)CC3)n2)cc1 (centres unmarked) [Compound 391, N-((1-(azepan-4-ylmethyl)pyrrolidin-3-yl)methyl)-1-(3-(4-methoxyphenyl)-1,2,4-oxadiazol-5-yl)piperidine-4-carboxamide] | + (+ >3 and <5)
COc1ccc(-c2noc(N3CCC(C(=O)NCC4CCN(C[C@@H]5CCCN5)C4)CC3)n2)cc1 (stereo partly drawn) [Compound 392, 1-(3-(4-methoxyphenyl)-1,2,4-oxadiazol-5-yl)-N-((1-(((S)-pyrrolidin-2-yl)methyl)pyrrolidin-3-yl)methyl)piperidine-4-carboxamide] | + (+ >3 and <5)
COc1ccc(-c2noc(N3CCC(C(=O)NCC4CCN(CC5CC(F)(F)C5)C4)CC3)n2)cc1 (centres unmarked) [Compound 393, N-((1-((3,3-difluorocyclobutyl)methyl)pyrrolidin-3-yl)methyl)-1-(3-(4-methoxyphenyl)-1,2,4-oxadiazol-5-yl)piperidine-4-carboxamide] | + (+ >3 and <5)
COc1ccc(-c2noc(N3CCC(C(=O)NCC4CCN(CC5CC(N)C5)C4)CC3)n2)cc1 (centres unmarked) [Compound 394, N-((1-(((1s,3s)-3-aminocyclobutyl)methyl)pyrrolidin-3-yl)methyl)-1-(3-(4-methoxyphenyl)-1,2,4-oxadiazol-5-yl)piperidine-4-carboxamide] | + (+ >3 and <5)
COc1ccc(-c2noc(N3CCC(C(=O)NCC4CCN(CC5CCO5)C4)CC3)n2)cc1 (centres unmarked) [Compound 395, 1-(3-(4-methoxyphenyl)-1,2,4-oxadiazol-5-yl)-N-((1-(oxetan-2-ylmethyl)pyrrolidin-3-yl)methyl)piperidine-4-carboxamide] | + (+ >3 and <5)
COc1ccc(-c2noc(N3CCC(C(=O)NCC4CCN(C5CCCOC5)C4)CC3)n2)cc1 (centres unmarked) [Compound 396, 1-(3-(4-methoxyphenyl)-1,2,4-oxadiazol-5-yl)-N-((1-(tetrahydro-2H-pyran-3-yl)pyrrolidin-3-yl)methyl)piperidine-4-carboxamide] | + (+ >3 and <5)
COc1ccc(-c2noc(N3CCC(C(=O)NCC4CCN(C(C)CO)C4)CC3)n2)cc1 (centres unmarked) [Compound 397, N-((1-(1-hydroxypropan-2-yl)pyrrolidin-3-yl)methyl)-1-(3-(4-methoxyphenyl)-1,2,4-oxadiazol-5-yl)piperidine-4-carboxamide] | − (− ≤3)
COc1ccc(-c2noc(N3CCC(C(=O)NCC4CCN(C5CCOCC5)C4)CC3)n2)cc1 (centres unmarked) [Compound 398, 1-(3-(4-methoxyphenyl)-1,2,4-oxadiazol-5-yl)-N-((1-(tetrahydro-2H-pyran-4-yl)pyrrolidin-3-yl)methyl)piperidine-4-carboxamide] | + (+ >3 and <5)
COc1ccc(-c2noc(N3CCC(C(=O)NCC4CCN(C5CC6(COC6)C5)C4)CC3)n2)cc1 (centres unmarked) [Compound 399, N-((1-(2-oxaspiro[3.3]heptan-6-yl)pyrrolidin-3-yl)methyl)-1-(3-(4-methoxyphenyl)-1,2,4-oxadiazol-5-yl)piperidine-4-carboxamide] | + (+ >3 and <5)
COc1ccc(-c2noc(N3CCC(C(=O)NCC4CCN(C5CCCOCC5)C4)CC3)n2)cc1 (centres unmarked) [Compound 400, 1-(3-(4-methoxyphenyl)-1,2,4-oxadiazol-5-yl)-N-((1-(oxepan-4-yl)pyrrolidin-3-yl)methyl)piperidine-4-carboxamide] | + (+ >3 and <5)
COc1ccc(-c2noc(N3CCC(C(=O)NCC4CCN(C5COC5)C4)CC3)n2)cc1 (centres unmarked) [Compound 401, 1-(3-(4-methoxyphenyl)-1,2,4-oxadiazol-5-yl)-N-((1-(oxetan-3-yl)pyrrolidin-3-yl)methyl)piperidine-4-carboxamide] | + (+ >3 and <5)
COc1ccc(-c2noc(N3CCC(C(=O)NCC4CCN(C5CCOC(C)C5)C4)CC3)n2)cc1 (centres unmarked) [Compound 402, 1-(3-(4-methoxyphenyl)-1,2,4-oxadiazol-5-yl)-N-((1-(2-methyltetrahydro-2H-pyran-4-yl)pyrrolidin-3-yl)methyl)piperidine-4-carboxamide] | + (+ >3 and <5)
COc1ccc(-c2noc(N3CCC(C(=O)Nc4ccc5c(c4)CCN5C)CC3)n2)cc1 [Compound 403, 1-(3-(4-methoxyphenyl)-1,2,4-oxadiazol-5-yl)-N-(1-methylindolin-5-yl)piperidine-4-carboxamide] | + (+ >3 and <5)
COc1ccc(-c2noc(N3CCC(C(=O)NCC4CCN(Cc5scnc5C)C4)CC3)n2)cc1 (centres unmarked) [Compound 404, 1-(3-(4-methoxyphenyl)-1,2,4-oxadiazol-5-yl)-N-((1-((4-methylthiazol-5-yl)methyl)pyrrolidin-3-yl)methyl)piperidine-4-carboxamide] | ++ (++ ≥5 and <6)
COc1ccc(-c2noc(N3CCC(C(=O)NCC4CCN(CC5CCCO5)C4)CC3)n2)cc1 (centres unmarked) [Compound 405, 1-(3-(4-methoxyphenyl)-1,2,4-oxadiazol-5-yl)-N-((1-((tetrahydrofuran-2-yl)methyl)pyrrolidin-3-yl)methyl)piperidine-4-carboxamide] | + (+ >3 and <5)
COc1ccc(-c2noc(N3CCC(C(=O)NCC4CCN(Cc5occc5C)C4)CC3)n2)cc1 (centres unmarked) [Compound 406, 1-(3-(4-methoxyphenyl)-1,2,4-oxadiazol-5-yl)-N-((1-((3-methylfuran-2-yl)methyl)pyrrolidin-3-yl)methyl)piperidine-4-carboxamide] | + (+ >3 and <5)
COc1ccc(-c2noc(N3CCC(C(=O)NCC4CCN(Cc5ncc(C)s5)C4)CC3)n2)cc1 (centres unmarked) [Compound 407, 1-(3-(4-methoxyphenyl)-1,2,4-oxadiazol-5-yl)-N-((1-((5-methylthiazol-2-yl)methyl)pyrrolidin-3-yl)methyl)piperidine-4-carboxamide] | ++ (++ ≥5 and <6)
COc1ccc(-c2noc(N3CCC(C(=O)NCC4CCN(CC5COC5)C4)CC3)n2)cc1 (centres unmarked) [Compound 408, 1-(3-(4-methoxyphenyl)-1,2,4-oxadiazol-5-yl)-N-((1-(oxetan-3-ylmethyl)pyrrolidin-3-yl)methyl)piperidine-4-carboxamide] | + (+ >3 and <5)
COc1ccc(-c2noc(N3CCC(C(=O)NCC4CCN(CC5=CCCCC5)C4)CC3)n2)cc1 (centres unmarked) [Compound 409, N-((1-(cyclohex-1-en-1-ylmethyl)pyrrolidin-3-yl)methyl)-1-(3-(4-methoxyphenyl)-1,2,4-oxadiazol-5-yl)piperidine-4-carboxamide] | ++ (++ ≥5 and <6)
COc1ccc(-c2noc(N3CCC(C(=O)NCC4CCN(CC=C(C)C)C4)CC3)n2)cc1 (centres unmarked) [Compound 410, 1-(3-(4-methoxyphenyl)-1,2,4-oxadiazol-5-yl)-N-((1-(3-methylbut-2-en-1-yl)pyrrolidin-3-yl)methyl)piperidine-4-carboxamide] | ++ (++ ≥5 and <6)
COc1ccc(-c2noc(N3CCC(C(=O)NCC4CCN(CCC(C)C)C4)CC3)n2)cc1 (centres unmarked) [Compound 411, N-((1-isopentylpyrrolidin-3-yl)methyl)-1-(3-(4-methoxyphenyl)-1,2,4-oxadiazol-5-yl)piperidine-4-carboxamide] | ++ (++ ≥5 and <6)
COc1ccc(-c2noc(N3CCC(C(=O)NCC4CCN(C[C@@H]5CCCNC5)C4)CC3)n2)cc1 (stereo partly drawn) [Compound 412, 1-(3-(4-methoxyphenyl)-1,2,4-oxadiazol-5-yl)-N-((1-(((R)-piperidin-3-yl)methyl)pyrrolidin-3-yl)methyl)piperidine-4-carboxamide] | − (− ≤3)
COc1ccc(-c2noc(N3CCC(C(=O)NCC4CCN(C[C@H]5CCN5)C4)CC3)n2)cc1 (stereo partly drawn) [Compound 413, N-((1-(((R)-azetidin-2-yl)methyl)pyrrolidin-3-yl)methyl)-1-(3-(4-methoxyphenyl)-1,2,4-oxadiazol-5-yl)piperidine-4-carboxamide] | − (− ≤3)
COc1ccc(-c2noc(N3CCC(C(=O)NCC4CCN(C[C@H]5CCCCN5C)C4)CC3)n2)cc1 (stereo partly drawn) [Compound 414, 1-(3-(4-methoxyphenyl)-1,2,4-oxadiazol-5-yl)-N-((1-(((R)-1-methylpiperidin-2-yl)methyl)pyrrolidin-3-yl)methyl)piperidine-4-carboxamide] | + (+ >3 and <5)
